Test [1] addresses T1, Alkaline phosphatase, tissue-nonspecific isozyme (Homo sapiens, UniProt P05186).
T1 sequence (P05186 whole entry): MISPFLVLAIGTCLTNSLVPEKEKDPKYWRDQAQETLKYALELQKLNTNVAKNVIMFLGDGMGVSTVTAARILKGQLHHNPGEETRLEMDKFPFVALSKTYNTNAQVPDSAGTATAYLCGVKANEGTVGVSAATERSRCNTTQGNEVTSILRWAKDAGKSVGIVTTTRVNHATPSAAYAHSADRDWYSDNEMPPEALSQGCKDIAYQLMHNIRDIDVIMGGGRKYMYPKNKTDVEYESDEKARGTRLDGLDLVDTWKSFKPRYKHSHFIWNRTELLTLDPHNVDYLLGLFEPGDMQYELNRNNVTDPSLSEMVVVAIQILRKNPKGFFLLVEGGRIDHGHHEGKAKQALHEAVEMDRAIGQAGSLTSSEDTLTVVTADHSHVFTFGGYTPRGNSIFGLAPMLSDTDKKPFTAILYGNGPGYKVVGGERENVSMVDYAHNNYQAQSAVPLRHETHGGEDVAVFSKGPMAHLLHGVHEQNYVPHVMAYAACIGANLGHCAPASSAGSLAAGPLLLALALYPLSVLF
Nature of the test: potency against alkaline phosphatase TNAP – biochemical, luminescent, dose response, SAR follow-up (AID 1056).

For test [2], the target named is Glyceraldehyde-3-phosphate dehydrogenase (Homo sapiens, UniProt P04406).
Glyceraldehyde-3-phosphate dehydrogenase, sequence (P04406 whole entry): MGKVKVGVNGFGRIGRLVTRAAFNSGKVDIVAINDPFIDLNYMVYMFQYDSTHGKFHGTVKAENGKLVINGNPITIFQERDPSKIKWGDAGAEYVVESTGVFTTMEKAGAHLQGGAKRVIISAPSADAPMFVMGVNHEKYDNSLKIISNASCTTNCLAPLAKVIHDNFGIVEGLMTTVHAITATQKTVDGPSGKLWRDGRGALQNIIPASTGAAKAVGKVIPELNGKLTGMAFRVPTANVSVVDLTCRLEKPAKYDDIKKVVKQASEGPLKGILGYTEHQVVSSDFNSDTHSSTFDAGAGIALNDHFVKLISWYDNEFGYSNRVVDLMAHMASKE
The target of test [3] is Alkaline phosphatase, placental type (Homo sapiens, UniProt P05187). In words: human placental alkaline phosphatase inhibition – biochemical, luminescence, confirmation (AID 1512). Format: functional.
Alkaline phosphatase, placental type, sequence (P05187 whole entry): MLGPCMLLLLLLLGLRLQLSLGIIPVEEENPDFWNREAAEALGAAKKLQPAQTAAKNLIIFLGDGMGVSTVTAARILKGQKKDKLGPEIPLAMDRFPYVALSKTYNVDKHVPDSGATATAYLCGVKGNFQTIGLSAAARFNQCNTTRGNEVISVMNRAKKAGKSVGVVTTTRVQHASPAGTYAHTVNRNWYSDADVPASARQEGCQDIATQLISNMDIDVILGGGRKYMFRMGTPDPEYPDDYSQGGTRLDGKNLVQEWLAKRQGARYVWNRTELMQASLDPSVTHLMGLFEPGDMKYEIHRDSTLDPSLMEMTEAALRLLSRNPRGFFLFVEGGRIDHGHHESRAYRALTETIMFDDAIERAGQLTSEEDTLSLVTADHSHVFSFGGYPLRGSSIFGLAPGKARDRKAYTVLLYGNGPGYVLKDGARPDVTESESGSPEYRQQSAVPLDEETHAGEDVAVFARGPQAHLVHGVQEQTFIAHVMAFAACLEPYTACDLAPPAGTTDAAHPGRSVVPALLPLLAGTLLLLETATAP
The nature of test [4]: Trypanosoma cruzi growth suppression in host cells – NIH3T3 host cells, beta-gal luminescence, confirmation (AID 2044).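 Note: intracellular parasites grown in NIH/3T3 mouse fibroblasts as host cells; luminescent beta-galactosidase reporter signal from transgenic T. cruzi replicating inside host cells; inhibitors lower the luminescence signal.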 Format: functional, cell-based.
Test [5] relates to INS1. Nature of the test: INS-1E survival protection against cytokine death – cell-based, luminescence, retest, dose response (AID 449756).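 Note: cell death triggered by IL-1 beta plus TNF-alpha plus IFN-gamma mixture; protective hits raise ATP signal compared with cytokine alone wells.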 It is filed as functional. Conditions: Rattus norvegicus.
Test [6] can be described thus: NIH3T3 cell viability loss – ATP luminescence, mouse fibroblasts, counter-screen, dose response (AID 2010).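 Note: cells exposed to compound for about 90 hours before reading.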 It is filed as functional, cell-based. A general note: The purpose of a counterscreen is to sort out artefacts and off-target activity.
Test [7] has as its system Streptococcus sp. 'group A'. In words: Streptococcus pyogenes SK(-)GAS viability under kanamycin – luminescence, BacTiterGlo, confirmation, counter-screen for streptokinase expression inhibitor project, dose response (AID 1900). It is filed as functional, organism-based.
Test [8] deals with Streptococcus. Nature of the test: GAS UMAA2166 growth inhibition – luminescence, BacTiterGlo, counter-screen for streptokinase expression inhibitor project, dose response (AID 1915).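 Note: potency for reduction of bacterial viability or growth.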 It is filed as functional, organism-based.
Test [9] can be described thus: Intein inhibitors as potential Tuberculosis drugs, a cytotoxicity screen. [Related pubchem assays (depositor defined):AID2221, AID2223, AID434968, AID435010, AID449749, AID449750, AID489010]. Format: functional.
For test [10], the system named is BJ. In words: BJ-TERT fibroblast viability loss – cell-based, RAS-independent, luminescence, dose response (AID 1933). Format: functional. Conditions: Homo sapiens.
In test [11] the test system is BJ. In words: cells. Format: functional, cell-based. To be noted: Homo sapiens.
A short description of test [12]: HEK-293T viability loss after treatment – luminescence, T-cell screen hits, cytotoxicity control for TCR NF-kB inhibitor project, dose response (AID 489026).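 Note: cells exposed to compound about 14 hours before the viability readout.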 Format: functional, cell-based.
Test [13] can be described thus: DRD fibroblast viability loss – cell-based, non-viral oncogenic, luminescence, dose response (AID 1934). It is filed as functional. To be noted: Homo sapiens.
The target in test [14] is T2, Protein skinhead-1 (Caenorhabditis elegans, UniProt P34707).
T2 sequence (P34707 whole entry): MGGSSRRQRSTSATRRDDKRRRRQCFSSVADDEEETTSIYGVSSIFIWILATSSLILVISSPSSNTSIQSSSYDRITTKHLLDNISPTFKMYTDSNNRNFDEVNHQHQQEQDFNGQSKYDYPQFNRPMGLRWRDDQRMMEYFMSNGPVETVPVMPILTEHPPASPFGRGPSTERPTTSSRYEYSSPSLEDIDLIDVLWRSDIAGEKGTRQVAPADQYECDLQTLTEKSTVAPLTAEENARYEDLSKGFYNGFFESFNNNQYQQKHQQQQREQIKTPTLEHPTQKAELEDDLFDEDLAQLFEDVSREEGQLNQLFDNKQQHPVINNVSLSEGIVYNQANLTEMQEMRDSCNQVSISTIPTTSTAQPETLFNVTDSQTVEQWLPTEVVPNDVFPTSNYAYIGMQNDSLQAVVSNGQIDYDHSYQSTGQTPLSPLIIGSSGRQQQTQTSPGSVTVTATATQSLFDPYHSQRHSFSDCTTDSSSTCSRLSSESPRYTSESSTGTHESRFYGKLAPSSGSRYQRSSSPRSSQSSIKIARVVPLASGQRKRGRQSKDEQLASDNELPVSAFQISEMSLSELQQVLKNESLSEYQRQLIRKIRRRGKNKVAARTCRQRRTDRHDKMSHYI
Format: functional.

The test system of test [15] is BJ. Nature of the test: BJ-TERT-LT-ST fibroblast viability loss – cell-based, RAS-independent, luminescence, dose response (AID 1935).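 Note: BJ fibroblasts immortalized with TERT plus LT and ST oncogenes.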 To be noted: Homo sapiens. Format: functional.
The target of test [16] is T3, Protein RecA (Mycobacterium tuberculosis, UniProt P9WHJ3).
T3 sequence (P9WHJ3 whole entry): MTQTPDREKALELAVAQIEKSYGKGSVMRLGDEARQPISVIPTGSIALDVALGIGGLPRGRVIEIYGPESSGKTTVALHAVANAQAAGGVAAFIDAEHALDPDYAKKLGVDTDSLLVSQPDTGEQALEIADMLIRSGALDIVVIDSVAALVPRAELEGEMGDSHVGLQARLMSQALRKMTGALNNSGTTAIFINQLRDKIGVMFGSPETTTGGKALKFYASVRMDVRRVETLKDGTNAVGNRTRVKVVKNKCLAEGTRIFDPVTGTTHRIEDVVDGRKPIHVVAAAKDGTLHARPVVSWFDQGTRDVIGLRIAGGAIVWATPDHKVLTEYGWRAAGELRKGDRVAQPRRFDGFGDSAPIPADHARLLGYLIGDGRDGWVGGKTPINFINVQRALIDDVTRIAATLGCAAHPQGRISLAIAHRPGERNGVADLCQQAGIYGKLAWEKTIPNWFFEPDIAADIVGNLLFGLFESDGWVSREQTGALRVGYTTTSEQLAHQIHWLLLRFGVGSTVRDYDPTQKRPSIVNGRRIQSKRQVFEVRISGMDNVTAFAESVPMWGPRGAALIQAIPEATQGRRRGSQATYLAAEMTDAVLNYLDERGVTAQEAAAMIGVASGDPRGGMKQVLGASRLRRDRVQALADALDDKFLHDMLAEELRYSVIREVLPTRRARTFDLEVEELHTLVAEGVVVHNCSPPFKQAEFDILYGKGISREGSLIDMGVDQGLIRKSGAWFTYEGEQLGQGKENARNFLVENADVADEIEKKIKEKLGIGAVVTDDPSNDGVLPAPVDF
In words: Fluorescence Cell-Free Homogeneous Dose Retest to Identify Inhibitors of RecA-Intein Splicing Activity. [Related pubchem assays (depositor defined):AID2097, AID2223, AID489010, AID492950]. Format: functional.

Test [17] has as its target Heat shock protein HSP 90-alpha (Homo sapiens, UniProt P07900). Format: functional, organism-based.
Test [18] addresses T4, Replicative DNA helicase DnaB (Mycobacterium tuberculosis, UniProt P9WMR3).
T4 sequence (P9WMR3 whole entry): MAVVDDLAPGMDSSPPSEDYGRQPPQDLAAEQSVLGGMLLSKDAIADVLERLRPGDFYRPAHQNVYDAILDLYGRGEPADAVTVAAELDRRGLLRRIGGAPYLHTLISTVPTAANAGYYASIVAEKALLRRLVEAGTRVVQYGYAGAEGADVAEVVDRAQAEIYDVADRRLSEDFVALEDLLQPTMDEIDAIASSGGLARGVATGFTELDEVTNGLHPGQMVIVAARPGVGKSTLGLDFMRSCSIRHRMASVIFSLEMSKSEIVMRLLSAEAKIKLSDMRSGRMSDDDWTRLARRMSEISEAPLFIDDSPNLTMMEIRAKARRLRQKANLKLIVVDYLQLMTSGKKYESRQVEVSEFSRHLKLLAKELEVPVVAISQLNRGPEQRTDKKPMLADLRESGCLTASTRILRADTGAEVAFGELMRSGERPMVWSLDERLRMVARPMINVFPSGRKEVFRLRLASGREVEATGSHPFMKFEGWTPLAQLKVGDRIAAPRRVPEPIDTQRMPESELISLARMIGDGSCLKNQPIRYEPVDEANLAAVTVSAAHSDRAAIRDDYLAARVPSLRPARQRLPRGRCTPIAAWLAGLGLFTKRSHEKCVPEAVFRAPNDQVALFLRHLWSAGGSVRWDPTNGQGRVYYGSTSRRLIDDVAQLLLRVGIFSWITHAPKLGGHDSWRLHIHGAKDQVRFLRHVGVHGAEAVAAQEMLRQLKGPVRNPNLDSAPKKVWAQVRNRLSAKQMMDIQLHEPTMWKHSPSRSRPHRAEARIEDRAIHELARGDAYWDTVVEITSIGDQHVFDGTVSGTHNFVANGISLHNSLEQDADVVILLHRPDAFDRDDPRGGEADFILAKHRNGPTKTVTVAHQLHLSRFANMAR
In words: DnaB intein splicing inhibitors, dose response, biochemical, cell-free fluorescence (AID 449749). It is filed as functional.

Test [19] addresses T5, Orexin/Hypocretin receptor type 1 (Homo sapiens, UniProt O43613).
T5 sequence (O43613 whole entry): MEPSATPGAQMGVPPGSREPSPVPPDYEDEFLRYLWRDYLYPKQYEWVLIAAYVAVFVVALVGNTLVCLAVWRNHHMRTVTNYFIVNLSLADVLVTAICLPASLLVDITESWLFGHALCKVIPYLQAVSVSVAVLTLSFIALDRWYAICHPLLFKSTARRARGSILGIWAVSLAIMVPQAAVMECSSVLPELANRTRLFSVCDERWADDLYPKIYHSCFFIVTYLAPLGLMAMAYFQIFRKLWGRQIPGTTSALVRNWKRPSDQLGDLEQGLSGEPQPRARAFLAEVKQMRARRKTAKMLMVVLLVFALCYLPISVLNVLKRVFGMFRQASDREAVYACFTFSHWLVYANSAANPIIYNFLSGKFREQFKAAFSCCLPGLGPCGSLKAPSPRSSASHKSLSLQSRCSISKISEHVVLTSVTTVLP
Nature of the test: Homogeneous Time Resolved Fluorescence (HTRF)-based cell-based high throughput dose response assay for antagonists of the orexin 1 receptor (OX1R; HCRTR1). [Related pubchem assays (depositor defined):AID434989, AID435008, AID463079, AID485270, AID492963, AID492964, AID492965, AID493232, AID504717, AID504718]. It is filed as functional. (In general: TR-FRET usually uses a lanthanide donor and a delayed reading to cut background.)

The nature of test [20]: Counterscreen for antagonists of the orexin 1 receptor (OX1R; HCRTR1): Fluorescence-based cell-based high throughput dose response assay to identify antagonists of the parental CHO cell line. [Related pubchem assays (depositor defined):AID434989, AID435008, AID463079, AID485270, AID492963, AID492964, AID492965, AID493232, AID504699, AID504701]. Format: functional.
Test [21] relates to CHO-K1. In words: Counterscreen for antagonists of the orexin 1 receptor (OX1R; HCRTR1): Homogeneous time resolved fluorescence (HTRF)-based cell-based dose response assay to identify antagonists of the parental CHO-K1 cell line. [Related pubchem assays (depositor defined):AID434989, AID435008, AID463079, AID485270, AID492963, AID492964, AID492965, AID493232, AID504699, AID504701]. To be noted: Cricetulus griseus. It is filed as functional.

Test [22] concerns the target T5, Orexin/Hypocretin receptor type 1. Nature of the test: Fluorescence-based cell-based high throughput dose response assay for antagonists of the orexin 1 receptor (OX1R; HCRTR1). [Related pubchem assays (depositor defined):AID434989, AID435008, AID463079, AID485270, AID492963, AID492964, AID492965, AID493232, AID504717, AID504718]. It is filed as functional.

Results on six compounds are retold here after ChEMBL document CHEMBL1201862, “PubChem BioAssay data set” (2004).

Molecules are shown by their SMILES. Activity calls are given as the source filed them.
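Throughout, for CC50: cells exposed to compound for 72 hours before luminescence readout.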

As to `O=[N+]([O-])c1ccc(-c2n[nH]c(-c3ccccc3)n2)cc1`, the IC50 in [1] is > 100 µM (inactive); in [2], > 100 µM (not active); in test [3], > 100 µM (inactive).
On to `O=C(NC(N=C(S)Nc1ccc(Cl)cc1Cl)C(Cl)(Cl)Cl)c1cccc([N+](=O)[O-])c1` (stereo not given), for which the EC50 was 1.14 µM (active) in [4], 8.05 µM (active) in test [6], 1.37 µM (active) in test [7] and 4.8 µM (active) in test [8]. In addition, the AC50 in test [5] was 6.08 µM (active). The CC50 in test [9] was 11 µM (active).
For the compound `O=C(c1ccc(Br)cc1)c1cc([N+](=O)[O-])ccc1N1CCOCC1`, the EC50 in test [10] is 7.48 µM (active); in test [11] it was 14.8 µM (active); in [13], 2.55 µM (active); in [15] it was 2.91 µM (inconclusive). The IC50 in test [12] is > 80 µM (inactive); in [14], 44.7 µM (active).
In the case of `CC1(C)N=C(SCC(=O)Nc2ccc(Cl)cc2)C(c2ccc(Cl)cc2)=N1`, the EC50 in test [16] was 4.7 µM (active). The AC50 is 11.3 µM (active) in test [17] and 3.03 µM (active) in [18]. In addition, the CC50 in test [9] was > 40 µM (active).
On to `CCOC(=O)C1=C(COC(=O)c2ccc3ccccc3c2O)NC(=O)NC1C` (stereo not given), for which the IC50 in test [19] is 1.62 µM (active); in [20] it was 37.2 µM (inactive); in test [21], 33.6 µM (inactive); in [22], 2.35 µM (active).
With `O=C(Cn1cnnn1)c1ccc(O)c(O)c1`, the IC50 was > 100 µM (inactive) in [1] and 16.4 µM (active) in [3].

By IC50 is commonly meant the concentration that gives 50% inhibition. As a reminder, the EC50 is the concentration that produces a half-maximal response. The term AC50 denotes the concentration giving half of the maximal activity seen. As usually defined, the CC50 is the concentration at which the toxic effect on the cells reaches its halfway point.
